Reference: US20150004224A1
Values joined by “and” are separate entries in the source; they are usually repeats but may differ in a detail not shown here. Equal entries are not always repeated.

System: Hep G2 hepatocarcinoma cells
Experiment: Gene expression profiling of Hep G2 cells incubated with EPA, DHA, DPA (Illumina HT-12 bead arrays, Ingenuity iReport)
[1] = EPA 100 μM, DHA 40 μM, DPA 11 μM
[2] = top genes uniquely regulated by DPA (11 μM), 48 hours

With `CC/C=C\C/C=C\C/C=C\C/C=C\C/C=C\CCCC(=O)O` [EPA, eicosapentaenoic acid (C20:5 n-3)] the “Beta-estradiol (inhibited) (top genes uniquely regulated by EPA)” value (EPA 100 μM) was “←”, the “GNAI3 regulation (top genes uniquely regulated by EPA)” value (EPA 100 μM) was “↑” and the “GOS2 regulation (top genes uniquely regulated by EPA)” value (EPA 100 μM) was “↓”. For the same compound, the “HERPUD1 regulation (top genes uniquely regulated by EPA)” value (EPA 100 μM) was “↓”, the “HIST2H2BE (includes others) regulation (top genes uniquely regulated by EPA)” value (EPA 100 μM) was “↑” and the “IER3 regulation (top genes uniquely regulated by EPA)” value (EPA 100 μM) was “↓”. For the same compound, the “IL2 (inhibited) (top genes uniquely regulated by EPA)” value (EPA 100 μM) was “←”, the “Lipopolysaccharide (inhibited) (top genes uniquely regulated by EPA)” value (EPA 100 μM) was “←” and the “MAT2A regulation (top genes uniquely regulated by EPA)” value (EPA 100 μM) was “↑”. For the same compound, the “NFKBIA regulation (top genes uniquely regulated by EPA)” value (EPA 100 μM) was “↓”, the “NFkB (complex) (inhibited) (top genes uniquely regulated by EPA)” value (EPA 100 μM) was “←” and the “RGS2 (includes EG: 19735) regulation (top genes uniquely regulated by EPA)” value (EPA 100 μM) was “↑”. The “AHSA2 regulation (top genes commonly regulated)” value (“AHSA2 regulation” for short) [1] was “↑”, the “CATSPER2 regulation (top genes commonly regulated)” value (shortened to “CATSPER2 regulation”) [1] was “↓” and the “CCL20 regulation (top genes commonly regulated)” value (shortened to “CCL20 regulation”) [1] was “↓”. The “CDKN2AIPNL regulation (top genes commonly regulated)” value (“CDKN2AIPNL regulation” below) [1] was “↓”, the “HIST1H3A (includes others) up-regulation: symbol for regulation in common” value [1] was “¶(DHA)” and the “HIST2H2AA3/HIST2H2AA4 up-regulation: symbol for regulation in common” value [1] was “¶(DHA)”. The “IL8 regulation (top genes commonly regulated)” value (shortened to “IL8 regulation”) [1] was “↓”, the “LOX up-regulation: symbol for regulation in common” value [1] was “¶(DHA)” and the “RELB down-regulation: symbol for regulation in common” value [1] was “¶(DPA)”. For the same compound, the “RELB regulation (top genes commonly regulated)” value [1] was “↓”, the “SRSF1 regulation (top genes commonly regulated)” value [1] was “↑” and the “SRSF1 up-regulation: symbol for regulation in common” value [1] was “¶(DPA)”.

With `CC/C=C\C/C=C\C/C=C\C/C=C\C/C=C\C/C=C\CCC(=O)O` [DHA, docosahexaenoic acid (C22:6 n-3)] the “FOXO3 regulation (top genes uniquely regulated by DHA)” value (DHA 40 μM) was “←”, the “LSMD1 regulation (top genes uniquely regulated by DHA)” value (DHA 40 μM) was “↑” and the “MAP2K2 regulation (top genes uniquely regulated by DHA)” value (DHA 40 μM) was “↓”. For the same compound, the “MRPS34 regulation (top genes uniquely regulated by DHA)” value (DHA 40 μM) was “↑”, the “MT1X regulation (top genes uniquely regulated by DHA)” value (DHA 40 μM) was “↑” and the “NFKB1 regulation (top genes uniquely regulated by DHA)” value (DHA 40 μM) was “←”. For the same compound, the “SNORA62 regulation (top genes uniquely regulated by DHA)” value (DHA 40 μM) was “↑”, the “TNFSF11 regulation (top genes uniquely regulated by DHA)” value (DHA 40 μM) was “←” and the “ZNF652 regulation (top genes uniquely regulated by DHA)” value (DHA 40 μM) was “↓”. The “AHSA2 regulation” value [1] was “↑”, the “ALPP down-regulation: symbol for regulation in common” value [1] was “¶(DPA)” and the “ALPP regulation (top genes commonly regulated)” value [1] was “↓”. For the same compound, the “CATSPER2 regulation” value [1] was “↓”, the “CCBE1 down-regulation: symbol for regulation in common” value [1] was “¶(DPA)” and the “CCBE regulation (top genes commonly regulated)” value [1] was “↓”. The “CCL20 regulation” value [1] was “↓”, the “CDKN2AIPNL regulation” value [1] was “↓” and the “DDX51 down-regulation: symbol for regulation in common” value [1] was “¶(DPA)”. For the same compound, the “DDX51 regulation (top genes commonly regulated)” value [1] was “↓”, the “HIST2H2AA3/HIST2H2AA4 up-regulation: symbol for regulation in common” value [1] was “¶(EPA)” and the “IL8 regulation” value [1] was “↓”. For the same compound, the “LOX up-regulation: symbol for regulation in common” value [1] was “¶(EPA)”, the “MST1 (includes EG: 15235) regulation (top genes commonly regulated)” value [1] was “↑” and the “MST1 (includes EG: 15235) up-regulation: symbol for regulation in common” value [1] was “¶(DPA)”.

For `CC/C=C\C/C=C\C/C=C\C/C=C\C/C=C\CCCCCC(=O)O` [DPA, docosapentaenoic acid (C22:5 n-3)], the “number of genes involved in lipid metabolism responsive” value (1 μM DPA) was 2 genes, the “fewer genes affected at the lower than at the higher DPA concentration” value (1 μM vs 11 μM DPA) was 10 fold and the “increase in number of cardiovascular physiology genes affected” value (11 μM DPA vs 1 μM DPA) was “five-fold”. For the same compound, the “number of lipid metabolism genes uniquely responding with statistically significant change in expression” value (11 μM DPA, not 1 μM) was 22 genes, the “number of genes uniquely responsive to the higher, but not the lower, DPA level” value (11 μM vs 1 μM DPA) was 310 genes and 300 genes and the “Cardiovascular: Total gene responses Low [DPA]” value (DPA 1 μM) was 10. The “Inflammatory: Total gene responses Low [DPA]” value (DPA 1 μM) was 18, the “Lipid metabolism: Total gene responses Low [DPA]” value (DPA 1 μM) was 2 and the “Cardiovascular: Gene responses in common” value (DPA 1 μM and 11 μM) was 6. The “Inflammatory: Gene responses in common” value (DPA 1 μM and 11 μM) was 4, the “Lipid metabolism: Gene responses in common” value (DPA 1 μM and 11 μM) was 0 and the “APOA2 expression Fold Change” value (DPA 11 μM) was −1.229. The “CD83 expression Fold Change” value (DPA 11 μM) was −1.629, the “Cardiovascular: Total gene responses High [DPA]” value (DPA 11 μM) was 51 and the “DGAT1 expression Fold Change” value (DPA 11 μM) was 1.602. The “DNAJB1 expression Fold Change” value (DPA 11 μM) was −1.489, the “FGFR3 expression Fold Change” value (DPA 11 μM) was 1.336 and the “GNAI3 expression Fold Change” value (DPA 11 μM) was 1.455. The “IL8 expression Fold Change” value (DPA 11 μM) was −2.535, the “IL18 (includes EG: 16173) expression Fold Change” value (DPA 11 μM) was −1.347 and the “IL32 expression Fold Change” value (DPA 11 μM) was −1.629. For the same compound, the “IP6K1 expression Fold Change” value (DPA 11 μM) was −1.242, the “IP6K2 expression Fold Change” value (DPA 11 μM) was 1.319 and the “Inflammatory: Total gene responses High [DPA]” value (DPA 11 μM) was 22. The “KIT expression Fold Change” value (DPA 11 μM) was 1.239, the “Lipid metabolism: Total gene responses High [DPA]” value (DPA 11 μM) was 22 and the “NFKB1 expression Fold Change” value (DPA 11 μM) was −1.386. The “PDPN (includes EG: 10630) expression Fold Change” value (DPA 11 μM) was −1.307, the “PGF expression Fold Change” value (DPA 11 μM) was −1.284 and the “PIP4K2B expression Fold Change” value (DPA 11 μM) was −1.578. For the same compound, the “PLA2G16 expression Fold Change” value (DPA 11 μM) was −1.337, the “PLIN5 expression Fold Change” value (DPA 11 μM) was −1.371 and the “PTGR2 expression Fold Change” value (DPA 11 μM) was −1.416. For the same compound, the “PTX3 expression Fold Change” value (DPA 11 μM) was −1.536, the “RGS2 (includes EG: 19735) expression Fold Change” value (DPA 11 μM) was 1.289 and the “STIP1 expression Fold Change” value (DPA 11 μM) was −1.469. The “ACADSB (short/branched chain acyl-CoA dehydrogenase) expression” value (DPA at 11 μM) was “upregulates”, the HMGCR expression (DPA at 11 μM) was “downregulated” and the SQLE expression (DPA at 11 μM) was “downregulated”. For the same compound, the “AHSA2 regulation” value [1] was “↑”, the “AHSA2 up-regulation: symbol for regulation in common” value [1] was “→♦” and the “ALPP down-regulation: symbol for regulation in common” value [1] was “¶(DHA)”. For the same compound, the “ALPP regulation (top genes commonly regulated)” value [1] was “↓”, the “CATSPER2 down-regulation: symbol for regulation in common” value [1] was “→♦” and the “CATSPER2 regulation” value [1] was “↓”. The “CCBE1 down-regulation: symbol for regulation in common” value [1] was “¶(DHA)”, the “CCBE regulation (top genes commonly regulated)” value [1] was “↓” and the “CCL20 regulation” value [1] was “↓”. For the same compound, the “CDKN2AIPNL regulation” value [1] was “↓”, the “DDX51 down-regulation: symbol for regulation in common” value [1] was “¶(DHA)” and the “DDX51 regulation (top genes commonly regulated)” value [1] was “↓”. The “IL8 regulation” value [1] was “↓”, the “MST1 (includes EG: 15235) regulation (top genes commonly regulated)” value [1] was “↑” and the “MST1 (includes EG: 15235) up-regulation: symbol for regulation in common” value [1] was “→¶(DHA)”. For the same compound, the “RELB down-regulation: symbol for regulation in common” value [1] was “¶(EPA)”, the “RELB regulation (top genes commonly regulated)” value [1] was “↓” and the “SRSF1 regulation (top genes commonly regulated)” value [1] was “↑”. For the same compound, the “SRSF1 up-regulation: symbol for regulation in common” value [1] was “→¶(EPA)”, the “increase in number of genes involved in inflammatory pathways” value (printed: observed at 1 μM) was “only a minor increase” and the ALDOC gene regulation [2] was “↑”. For the same compound, the AMT gene regulation [2] was “↑”, the HNRNPA2B1 gene regulation [2] was “↑” and the MGC16121 gene regulation [2] was “↑”. The PRKCD gene regulation [2] was “←”, the QRFPR gene regulation [2] was “↓” and the “RELA (inhibited) gene regulation” value [2] was “←”. The SRSF5 gene regulation [2] was “↑”, the STK36 gene regulation [2] was “↑” and the “TLR7 (inhibited) gene regulation” value [2] was “←”. The TOP3B gene regulation [2] was “↑” and the ZNF14 gene regulation [2] was “↑”.
